In patent US20240018125A1, “CYCLIC ISOTHIOUREA DERIVATIVES AS CXCR4 MODULATORS” (ERMIUM THERAPEUTICS, priority 2020, published 2024) one finds IC50 data, which are given here for 28 molecules.

SMILES strings stand for the structures. Counter-ions that a name gives are not always drawn. A value given as a limit tells only on which side of the number the result lay.

This assay concerns peripheral blood mononuclear cells (PBMCs) from healthy donors. Description: IFN production by R848-activated PBMCs, quantified with twINNE luciferase reporter cell line. The note with it: Homo sapiens, PBMC; read-out: IC50 of anti-inflammatory activity (IFN production by activated PBMCs). Type of assay: cell-based, human. The protocol: The blood from healthy donors was obtained from “Etablissement Français du Sang” (convention #19/EFS/029), Paris, France.
In vitro experiments were performed using human peripheral blood mononuclear cells (PBMCs) isolated by density centrifugation from peripheral blood leukocyte separation medium, lymphoprep (Stemcell Technologies).
PBMCs were cultured in RPMI 1640 (Sigma-Aldrich, MO, USA) containing 10% heat-inactivated fetal bovine serum (Sigma-Aldrich, MO, USA) at 37° C./5% CO2.
The PBMCs used herein were prepared as described in part A “immune cells preparation”, above. PBMCs were seeded at 4.10^6/mL. Cells were pre-treated with different concentration of examples according to the invention. Cells were then stimulated with the TLR7/8 agonist resiquimod—R848 (Sigma-Aldrich, MO, USA) at 5 μg/mL.
To quantify the secretion of functional IFN, a biological assay based on a stable cell line where luciferase reporter gene is controlled by five Interferon-Stimulated Response Elements (twINNE cell line) was used. First, supernatants of R848-stimulated PBMCs (see part B above) were harvested after 24 h of stimulation and frozen at −20° C. for storage. Then, supernatants were dispensed in culture wells of a 96-well plate containing 35.103 twINNE cells per well in Dulbecco's Modified Eagle's Medium supplemented with 10% Foetal Bovine Serum, 100 U/mL Penicillin and 100 μg/mL Streptomycin (1% Pen-Strep) and 1 mM glutamine (Sigma-Aldrich, MO, USA) at 37° C./5% CO2. After 24 h of culture, luciferase activity was determined by adding 60 μL of Bright-Glo reagents (Promega, Wisconsin, USA) to culture wells and measuring bioluminescence with EnSpire Multimode Plate Reader (PerkinElmer, Massachusetts, USA). When stated, for IC50 calculation, dose-response curves fitted using the nonlin fit (variable slope) analysis in GraphPad Prism software (GraphPad Software, Califronia, USA).
IFN production was quantified (as specified in Materials and Methods, part C “quantification of interferon secretion”) using twINNE reporter cell line.
(In general: A reporter such as luciferase makes a cellular process visible.)
The IC50 is the point on the concentration scale where inhibition reaches its midpoint. For `Clc1ccc2c(c1)CN=C(SCCCCN1CCCCC1)N2` [Example 164, 6-chloro-2-((4-(piperidin-1-yl)butyl)thio)-1,4-dihydroquinazoline dihydrochloride], the IC50 is no more than 10 µM.

As for `c1ccc(COC2CCN(CCSC3=NCc4ccccc4N3)C2)cc1` (stereo not shown) [Example 143, 2-((2-(3-(benzyloxy)pyrrolidin-1-yl)ethyl)thio)-1,4-dihydroquinazoline dihydrochloride], the IC50 is no more than 10 µM.

As for `Fc1ccc2c(c1)CN=C(SCC1=CSC3=Nc4ccc(Cl)cc4CN13)N2` [Example 83, 7-chloro-3-(((6-fluoro-1,4-dihydroquinazolin-2-yl)thio)methyl)-5H-thiazolo[2,3-b]quinazoline dihydrochloride], the 50% inhibitory concentration (IC50) is no more than 10 µM.

As to `c1ccc(N2CCC(SC3=NCc4ccccc4CN3)C2)cc1` (stereo not shown) [Example 106, 3-((1-phenylpyrrolidin-3-yl)thio)-2,5-dihydro-1H-benzo[e][1,3]diazepine hydrochloride], the 50% inhibitory concentration (IC50) lay within 10 to 32 µM.

With `COc1ccc(CC2(C)CN=C(SCCN3CCCC3)N2)cc1` (stereo not shown) [Example 183, 5-(4-methoxybenzyl)-5-methyl-2-((2-(pyrrolidin-1-yl)ethyl)thio)-4,5-dihydro-1H-imidazole dihydrochloride], the IC50 is greater than 32 µM.

With `C1=C(CSC2=NCCc3ccccc3N2)N2Cc3ccccc3CN=C2S1` [Example 25, 3-(((4,5-dihydro-1H-benzo[d][1,3]diazepin-2-yl)thio)methyl)-5,10-dihydrobenzo[e]thiazolo[3,2-a][1,3]diazepine dihydrochloride], the 50% inhibitory concentration (IC50) is no more than 10 µM.

`CC1(c2ccccc2)CN2C(CSC3=NCc4ccccc4N3)=CSC2=N1` (stereo not shown) [Example 38, 3-(((3,4-dihydroquinazolin-2-yl)thio)methyl)-6-methyl-6-phenyl-5,6-dihydroimidazo[2,1-b]thiazole dihydrochloride]: the IC50 is no more than 10 µM.

For the molecule `Clc1ccc2c(c1)CN=C(SCC1=CSC3=NC(Cc4ccccc4)CN13)N2` (stereo not shown) [Example 114, 6-benzyl-3-(((6-chloro-1,4-dihydroquinazolin-2-yl)thio)methyl)-5,6-dihydroimidazo[2,1-b]thiazole dihydrochloride], the IC50 is no more than 10 µM.

On to `c1ccc2c(c1)CCN=C(SCCN1CCc3ccccc31)N2` [Example 192, 2-((2-(indolin-1-yl)ethyl)thio)-4,5-dihydro-1H-benzo[d][1,3]diazepine hydrochloride], for which the IC50 lay within 10 to 32 µM.

Consider `C[C@@H](CN1CCCC1)SC1=NCc2cc(Cl)ccc2N1` [Example 168, (S)-6-chloro-2-((1-(pyrrolidin-1-yl)propan-2-yl)thio)-1,4-dihydroquinazoline dihydrochloride], for which the IC50 was in the range of 10 to 32 µM.

For `C1=C(CSC2=NCc3ccccc3N2)N2CC(C3CCCCC3)N=C2S1` (stereo not shown) [Example 15, 6-cyclohexyl-3-(((3,4-dihydroquinazolin-2-yl)thio)methyl)-5,6-dihydroimidazo[2,1-b]thiazole dihydrochloride], the IC50 was no more than 10 µM.

As to `C1=C(CSC2=NCc3ccccc3N2)N2CC(Cc3cccs3)N=C2S1` (stereo not shown) [Example 63, 3-(((3,4-dihydroquinazolin-2-yl)thio)methyl)-6-(thiophen-2-ylmethyl)-5,6-dihydroimidazo[2,1-b]thiazole dihydrochloride], the 50% inhibitory concentration (IC50) is no more than 10 µM.

In the case of `Brc1ccc2c(c1)N=C1SC=C(CSC3=NCc4ccccc4N3)N1C2` [Example 70, 8-bromo-3-(((1,4-dihydroquinazolin-2-yl)thio)methyl)-5H-thiazolo[2,3-b]quinazoline dihydrochloride], the half-inhibitory concentration (IC50) was no more than 10 µM.

As for `Clc1ccc2c(c1)CN=C(SCCCN1CCCC1)N2` [Example 161, 6-chloro-2-((3-(pyrrolidin-1-yl)propyl)thio)-1,4-dihydroquinazoline dihydrochloride], the 50% inhibitory concentration (IC50) was no more than 10 µM.

Regarding `Brc1ccc2c(c1)CN=C(SCCCCN1CCCC1)N2` [Example 163, 6-bromo-2-((4-(pyrrolidin-1-yl)butyl)thio)-1,4-dihydroquinazoline dihydrochloride], the IC50 is no more than 10 µM.

Turning to `C[C@@H](CSC1=NCc2cc(Cl)ccc2N1)N1CCCC1` [Example 166, (S)-6-chloro-2-((2-(pyrrolidin-1-yl)propyl)thio)-1,4-dihydroquinazoline dihydrochloride], the 50% inhibitory concentration (IC50) is no more than 10 µM.

On to `C1=C(CSC2=NCc3ccccc3N2)N2Cc3cccnc3N=C2S1` [Example 28, 3-(((3,4-dihydroquinazolin-2-yl)thio)methyl)-5H-pyrido[2,3-d]thiazolo[3,2-a]pyrimidine trihydrochloride], for which the IC50 was no more than 10 µM.

In the case of `Ic1cc2c(c(I)c1I)NC(SCCN1CCCC1)=NC2` [Example 134, 6,7,8-triiodo-2-((2-(pyrrolidin-1-yl)ethyl)thio)-1,4-dihydroquinazoline dihydrochloride], the IC50 was no more than 10 µM.

For `Fc1cccc2c1CN=C(SCC1=CSC3=NC(Cc4ccccc4)CN13)N2` (stereo not shown) [Example 117, 6-benzyl-3-(((5-fluoro-1,4-dihydroquinazolin-2-yl)thio)methyl)-5,6-dihydroimidazo[2,1-b]thiazole dihydrochloride], the 50% inhibitory concentration (IC50) was no more than 10 µM.

In the case of `c1ccc(CC2CN=C(SCCCN3CCCC3)N2)cc1` (stereo not shown) [Example 52, 5-benzyl-2-((3-(pyrrolidin-1-yl)propyl)thio)-4,5-dihydro-1H-imidazole dihydrochloride], the IC50 is greater than 32 µM.

Regarding `CN1CCCC1CSC1=NCc2ccccc2N1` (stereo not shown) [Example 108, 2-(((1-methylpyrrolidin-2-yl)methyl)thio)-1,4-dihydroquinazoline dihydrochloride], the IC50 is 10 to 32 µM.

Take `Fc1ccc2c(c1)NC(SCCCCN1CCCC1)=NC2` [Example 151, 7-fluoro-2-((4-(pyrrolidin-1-yl)butyl)thio)-1,4-dihydroquinazoline dihydrochloride]: the 50% inhibitory concentration (IC50) is no more than 10 µM.

`F[C@@H]1CCN(CCSC2=NCc3ccccc3N2)C1` [Example 157, (R)-2-((2-(3-fluoropyrrolidin-1-yl)ethyl)thio)-1,4-dihydroquinazoline dihydrochloride]: the IC50 was 10 to 32 µM.

`IC1=C(CSC2=NCc3ccccc3N2)N2CC(Cc3ccccc3)N=C2S1` (stereo not shown) [Example 110, 6-benzyl-3-(((1,4-dihydroquinazolin-2-yl)thio)methyl)-2-iodo-5,6-dihydroimidazo[2,1-b]thiazole dihydrochloride]: the IC50 is no more than 10 µM.

In the case of `c1ccc2c(c1)CN=C(SCCCCN1CCCC1)N2` [Example 137, 2-((4-(pyrrolidin-1-yl)butyl)thio)-1,4-dihydroquinazoline dihydrochloride], the IC50 was in the range of 10 to 32 µM.

`Fc1ccc2c(c1)CN1C(CSC3=NCc4ccccc4N3)=CSC1=N2` [Example 84, 3-(((1,4-dihydroquinazolin-2-yl)thio)methyl)-7-fluoro-5H-thiazolo[2,3-b]quinazoline dihydrochloride]: the 50% inhibitory concentration (IC50) was no more than 10 µM.

For `Clc1ccc(C2CN=C(SCC3=CSC4=NCc5ccccc5CN34)N2)cc1` (stereo not shown) [Example 22, 3-(((4-(4-chlorophenyl)-4,5-dihydro-1H-imidazol-2-yl)thio)methyl)-5,10-dihydrobenzo[e]thiazolo[3,2-a][1,3]diazepine dihydrochloride], the IC50 is no more than 10 µM.

On to `c1ccc(CC2CCN(CCSC3=NCc4ccccc4N3)C2)cc1` (stereo not shown) [Example 154, 2-((2-(3-benzylpyrrolidin-1-yl)ethyl)thio)-1,4-dihydroquinazoline dihydrochloride], for which the IC50 was greater than 32 µM.
